Patent publication US11173144B2, “Adrenergic receptor modulating compounds and methods of using the same” (The Board of Trustees of the Leland Stanford Junior …, priority 2016, dated 2021)
Entries after “also recorded” stand apart in the source; their conditions may differ.

Tests used:
[1] = test system: Abeta-induced LTP impairment in hippocampal slices; assay: Long-term potentiation in hippocampal slices exposed to amyloid beta; details: mouse hippocampal slices, 10 uM
Procedure: Mice were anesthetized with isoflurane before decapitation. The brain was quickly removed and immersed for 2 min in ice-cold low-calcium modified artificial cerebrospinal fluid (mACSF) composed of (in mM): 119 NaCl, 2.5 KCl, 1 CaCl2, 3 MgSO4, 1 NaH2PO4, 26 NaHCO3 and 10 glucose, osmolarity ˜305 mOsm, continuously bubbled with 95% O2-5% CO2, pH=7.4. The hippocampus was dissected out and cut in ice-cold mACSF with a vibratome (Leica VT1000S; Nussloch, Germany) into […] slices from the middle part of the hippocampus. The slices were allowed to recover in oxygenated mACSF at 33° C. for 10 min, and then at room temperature for an additional 2-3 hr before experimental recordings. Slices were transferred into the recording chamber and superfused with regular ACSF containing (in mM): 119 NaCl, 2.5 KCl, 2.5 CaCl2, 1.3 MgSO4, 1 NaH2PO4, 26 NaHCO3 and 10 glucose, continuously bubbled with 95% O2-5% C02, pH=7.4, osmolarity ˜305 mOsm, at a constant rate of 2.7 mL/min at 32° C. […] The initial slope of field excitatory postsynaptic potentials (fEPSP) was measured at latencies 0.1-0.9 ms. […] After stabilization of responses, input-output dependences were measured using series of stimulation intensities (range 30-150 μA). […] LTP was induced by high-frequency tetanization ([…], 100 Hz for 1 sec), and the responses were recorded for the period of 1.5 h after the tetanus.

[2] = test system: transient middle cerebral artery occlusion (tMCAO) model of stroke; assay: tMCAO model of stroke, infarction volume; assay type: in vivo; details: rat tMCAO, 3 mg/kg, 21 days
Procedure: The tMCAO is performed on animal under isoflurane inhalation anesthesia (4% for induction and 1.5-2.5% for maintenance) in airoxygen mixture ratio 3:1. Ventral neck area is shaved by electric razor and disinfected using betadine followed by 70% ethanol solution. Subsequently, a midline incision is made in the ventral neck area, sharp and blunt dissection techniques are used to isolate left common carotid artery (CCA) and the internal and external carotid arteries (ICA and ECA, respectively). The proximal CCA is ligated below the bifurcation using 3-0 braided silk suture allowing enough room for filament insertion in the area between the ligation and bifurcation. Subsequently, ECA is ligated at its origin dose to the CCA bifurcation, so that the occipital artery stays proximal to the ligature. A microvessel dip is placed on ICA temporarily to avoid excessive bleeding during filament insertion. In order to occlude the origin of middle cerebral artery (MCA), a monofilament with silicon coated tip (0.39 mm diameter, 5-6 mm long) is then inserted into the CCA, the microvessel dip removed following filament advancement into the ICA 20 mm from the bifurcation through small, horizontal incision. The filament is secured in its place by a suture knot placed between the bifurcation and proximal CCA ligature. […]

5-HT2B = 5-HT2B (Homo sapiens (Human), UniProt P41595); assay: CNS target panel screen: 5-HT2B; assay type: binding
Excerpt: From a drug development perspective, characterizing the off-target effects of lead compounds is an important issue, as interactions with off-target molecules may lead to undesirable side effects. Thus we screened xamoterol (S) and the key compound compound 43 against a panel of CNS relevant targets, including G-protein coupled receptor and transporters.

α1D adrenergic receptor = α1D adrenergic receptor (Homo sapiens (Human), UniProt P25100); assay: CNS target panel screen: α1D adrenergic receptor; assay type: binding
Excerpt: (§1) From a drug development perspective, characterizing the off-target effects of lead compounds is an important issue, as interactions with off-target molecules may lead to undesirable side effects. Thus we screened xamoterol (S) and the key compound compound 43 against a panel of CNS relevant targets, including G-protein coupled receptor and transporters. […].

D3 dopaminergic receptor = D3 dopaminergic receptor (Homo sapiens (Human), UniProt P35462); assay: CNS target panel screen: D3 dopaminergic receptor; assay type: binding
Excerpt: as §1

[3] = test system: LPS-induced TNF-α production in primary microglia; assay: In vitro primary microglia TNF-α assay (LPS stimulation, ELISA); assay type: cell-based, rat; details: rat primary microglia, LPS 10 ng/ml, compound 10 μM, 4 h; read-out: inhibition of LPS-induced TNF-α production
Excerpt: Mixed glial cells are obtained from the cerebral cortex of Sprague Dawley rat pups at postnatal days 1-3. Briefly, neonates are euthanized by decapitation and their brain tissues are collected for isolation of cortex. The isolated cortex was then trypsinized, triturated, and placed onto tissue culture flasks in DMEM supplemented with 10% fetal bovine serum and 1% Penicillin/Streptomycin. After 10 days in vitro, microglia are harvested by gentle shaking of the growth flask, plated in a 96 well plate at a density of 30,000 cells/well, and incubated at 37° C. overnight. […] Following the 4 h incubation, cell media is collected and the concentration of TNF-α is measured by ELISA (Invitrogen, KRC3011) according to the manufacturer's instruction.
The effects of selected compounds on cellular inflammatory response to LPS are determined in primary microglia extracted from a rat. Briefly, mixed glial cells are obtained from the cerebral cortex of Sprague Dawley rat pups at postnatal days 1-3 and cultured in DMEM supplemented with 10% fetal bovine serum. After 7 days in vitro, microglia are harvested by gentle shaking of the growth flask and plated in a 96 well plate at the density of 3×10^4 cells/well. The cells are used following day. Effects of compounds on LPS-induced TNFα production are determined by incubating cells with LPS along with or without test compounds for 4 hours. Following the 4 hour incubation, cell media are collected and concentration of TNFα was measured by EUSA.

Chain of 5-HT2B (P41595 whole entry, species assumed): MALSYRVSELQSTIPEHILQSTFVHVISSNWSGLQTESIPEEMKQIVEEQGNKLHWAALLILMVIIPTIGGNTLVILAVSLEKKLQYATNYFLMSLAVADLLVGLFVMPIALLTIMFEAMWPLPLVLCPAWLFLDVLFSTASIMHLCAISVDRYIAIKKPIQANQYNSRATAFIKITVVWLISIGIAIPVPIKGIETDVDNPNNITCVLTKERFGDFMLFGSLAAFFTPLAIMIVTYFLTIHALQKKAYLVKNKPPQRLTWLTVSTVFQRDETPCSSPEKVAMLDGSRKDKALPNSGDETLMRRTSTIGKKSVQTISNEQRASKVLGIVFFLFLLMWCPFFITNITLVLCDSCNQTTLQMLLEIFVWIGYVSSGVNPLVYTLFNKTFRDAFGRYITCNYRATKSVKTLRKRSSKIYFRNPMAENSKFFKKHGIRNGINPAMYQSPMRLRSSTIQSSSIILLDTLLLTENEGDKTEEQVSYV
Chain of D3 dopaminergic receptor (P35462 whole entry): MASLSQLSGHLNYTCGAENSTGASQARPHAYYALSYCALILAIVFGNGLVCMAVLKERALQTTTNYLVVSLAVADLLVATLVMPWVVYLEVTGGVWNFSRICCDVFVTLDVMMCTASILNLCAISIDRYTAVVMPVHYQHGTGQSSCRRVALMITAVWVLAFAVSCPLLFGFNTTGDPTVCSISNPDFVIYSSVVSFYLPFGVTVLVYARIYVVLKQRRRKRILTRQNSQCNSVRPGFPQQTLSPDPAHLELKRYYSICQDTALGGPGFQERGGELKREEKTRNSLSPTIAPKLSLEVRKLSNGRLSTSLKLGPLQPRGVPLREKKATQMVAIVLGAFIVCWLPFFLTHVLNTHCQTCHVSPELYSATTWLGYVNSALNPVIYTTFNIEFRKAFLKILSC
Chain of α1D adrenergic receptor (P25100 whole entry): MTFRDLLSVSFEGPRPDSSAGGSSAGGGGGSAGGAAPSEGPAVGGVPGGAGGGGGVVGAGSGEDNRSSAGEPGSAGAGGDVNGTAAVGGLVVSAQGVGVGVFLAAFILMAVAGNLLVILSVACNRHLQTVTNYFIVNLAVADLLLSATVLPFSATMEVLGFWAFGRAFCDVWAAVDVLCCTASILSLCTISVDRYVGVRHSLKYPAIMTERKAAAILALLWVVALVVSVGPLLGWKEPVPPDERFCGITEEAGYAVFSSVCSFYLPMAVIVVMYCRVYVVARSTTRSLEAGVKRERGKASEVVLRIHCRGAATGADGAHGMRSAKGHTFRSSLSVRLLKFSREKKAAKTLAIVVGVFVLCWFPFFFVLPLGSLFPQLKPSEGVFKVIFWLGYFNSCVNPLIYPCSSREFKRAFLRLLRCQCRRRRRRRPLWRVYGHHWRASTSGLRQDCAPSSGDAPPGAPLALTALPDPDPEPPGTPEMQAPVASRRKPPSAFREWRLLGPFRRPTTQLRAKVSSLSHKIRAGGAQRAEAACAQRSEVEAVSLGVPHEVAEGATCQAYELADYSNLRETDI

Structure (SMILES) | amyloid beta-induced LTP impairment [1] | infarction volume [2] | affinity for 5-HT2B (5-HT2B) | affinity for α1D adrenergic receptor (α1D adrenergic receptor) | affinity for D3 dopaminergic receptor (D3 dopaminergic receptor) | inhibition at 10 µM [3]
O=C(NCCNCC(O)COc1ccc(O)cc1)N1CCOCC1 (stereo not drawn) [Xamoterol, reference compound] | blocks the LTP impairment induced by Ab; also recorded: blocks the Ab-induced LTP in impairment | reduces infarction volume |  |  |  | 
COc1ccccc1OCCNC[C@H](O)COc1ccc(O)cc1 [Compound 43] |  |  | significant affinity | significant affinity | significant affinity | ~55%
